Key:
Type in all cases: functional
CCRF-CEM = test: Cytotoxicity against human CCRF-CEM cells by SRB assay; details: read-out: LC50 (the source's name)
HL-60(TB) = test: Cytotoxicity against human HL-60(TB) cells by SRB assay; details: read-out: LC50 (the source's name)
RPMI-8226 = test: Cytotoxicity against human RPMI8226 cells by SRB assay; details: read-out: LC50 (the source's name)
EKVX = test: Cytotoxicity against human EKVX cells by SRB assay; details: read-out: LC50 (the source's name)
HOP-92 [1] = test: Cytotoxicity against human HOP92 cells by SRB assay; details: read-out: LC50 (the source's name)
NCI-H226 = test: Cytotoxicity against human NCI-H226 cells by SRB assay; details: read-out: LC50 (the source's name)
NCI-H322M = test: Cytotoxicity against human NCI-H322M cells by SRB assay; details: read-out: LC50 (the source's name)
HCC 2998 = test: Cytotoxicity against human HCC2998 cells by SRB assay; details: read-out: LC50 (the source's name)
HCT-15 = test: Cytotoxicity against human HCT15 cells by SRB assay; details: read-out: LC50 (the source's name)
SF-539 [2] = test: Cytotoxicity against human SF539 cells by SRB assay; details: read-out: LC50 (the source's name)
U-251 = test: Cytotoxicity against human U251 cells by SRB assay; details: read-out: LC50 (the source's name)
LOX IMVI = test: Cytotoxicity against human LOXIMVI cells by SRB assay; details: read-out: LC50 (the source's name)
SK-MEL-2 = test: Cytotoxicity against human SK-MEL-2 cells by SRB assay; details: read-out: LC50 (the source's name)
SK-MEL-5 = test: Cytotoxicity against human SK-MEL-5 cells by SRB assay; details: read-out: LC50 (the source's name)
UACC-257 = test: Cytotoxicity against human UACC257 cells by SRB assay; details: read-out: LC50 (the source's name)
UACC-62 = test: Cytotoxicity against human UACC62 cells by SRB assay; details: read-out: LC50 (the source's name)
IGROV-1 [3] = test: Cytotoxicity against human IGROV1 cells by SRB assay; details: read-out: LC50 (the source's name)
OVCAR-5 = test: Cytotoxicity against human OVCAR5 cells by SRB assay; details: read-out: LC50 (the source's name)
A498 = test: Cytotoxicity against human A498 cells by SRB assay; details: read-out: LC50 (the source's name)
ACHN = test: Cytotoxicity against human ACHN cells by SRB assay; details: read-out: LC50 (the source's name)
RXF 393 = test: Cytotoxicity against human RFX393 cells by SRB assay; details: read-out: LC50 (the source's name)
SN12C = test: Cytotoxicity against human SN12C cells by SRB assay; details: read-out: LC50 (the source's name)
DU-145 = test: cells; details: Homo sapiens
Description: Growth inhibition of human DU145 cells assessed as cell growth at 10 uM by SRB assay

MDA-MB-231 [4] = test: cells; details: Homo sapiens
Description: Growth inhibition of human MDA-MB-231 cells assessed as cell growth at 10 uM by SRB assay

TK-10 = test: Cytotoxicity against human TK10 cells by SRB assay; details: read-out: LC50 (the source's name)
NCI/ADR-RES = test: Cytotoxicity against human NCI/ADR-RES cells by SRB assay; details: read-out: LC50 (the source's name)
MDA-MB-231 [5] = test: Cytotoxicity against human MDA-MB-231 cells by SRB assay; details: read-out: LC50 (the source's name)
A549 = test: cells; details: Homo sapiens
Description: Growth inhibition of human A549 cells assessed as cell growth at 10 uM by SRB assay

NCI-H23 = test: cells; details: Homo sapiens
Description: Growth inhibition of human NCI-H23 cells assessed as cell growth at 10 uM by SRB assay

HOP-92 [6] = test: cells; details: Homo sapiens
Description: Growth inhibition of human HOP92 cells assessed as drug level required for 50% reduction in net protein increase by SRB assay relative to control

SR = test: cells; details: Homo sapiens
Description: Growth inhibition of human SR cells assessed as drug level required for 50% reduction in net protein increase by SRB assay relative to control

SW-620 = test: cells; details: Homo sapiens
Description: Growth inhibition of human SW620 cells assessed as drug level required for 50% reduction in net protein increase by SRB assay relative to control

SF-539 [7] = test: cells; details: Homo sapiens
Description: Growth inhibition of human SF539 cells assessed as cell growth at 10 uM by SRB assay

786-0 = test: cells; details: Homo sapiens
Description: Growth inhibition of human 786-0 cells assessed as cell growth at 10 uM by SRB assay

BT-549 = test: cells; details: Homo sapiens
Description: Growth inhibition of human BT549 cells assessed as cell growth at 10 uM by SRB assay

IGROV-1 [8] = test: cells; details: Homo sapiens
Description: Growth inhibition of human IGROV1 cells assessed as cell growth at 10 uM by SRB assay

SMILES | CC50 (CCRF-CEM) [µM] | CC50 (HL-60(TB)) [µM] | CC50 (RPMI-8226) [µM] | CC50 (EKVX) [µM] | CC50 (HOP-92 [1]) [µM] | CC50 (NCI-H226) [µM] | CC50 (NCI-H322M) [µM] | CC50 (HCC 2998) [µM] | CC50 (SK-MEL-2) [µM] | CC50 (IGROV-1 [3]) [µM] | CC50 (RXF 393) [µM] | growth at 10 µM (DU-145) [%] | growth at 10 µM (MDA-MB-231 [4]) [%] | growth at 10 µM (A549) [%] | growth at 10 µM (NCI-H23) [%] | GI50 (HOP-92 [6]) [µM] | GI50 (SR) [µM] | GI50 (SW-620) [µM] | growth at 10 µM (SF-539 [7]) [%] | growth at 10 µM (786-0) [%] | further results
CCCCCCCCCCCCCCCCCCPCCCCCCCCCCCCCC.O=S(=O)(NS(=O)(=O)C(F)(F)F)C(F)(F)F (stereo not drawn) | 8.46 | 0.711 | 0.098 | > 100 | > 100 | > 100 | > 100 | > 100 | > 100 | > 100 | > 100 | -100 | -38.3 | -35 | -39.3 | 0.03 | 0.072 | 0.049 | 5.67 | -65.8 | CC50 (HCT-15): > 100 µM; CC50 (SF-539 [2]): > 100 µM; CC50 (U-251): 5.62 µM; CC50 (LOX IMVI): 0.592 µM; CC50 (SK-MEL-5): 0.829 µM; CC50 (UACC-257): > 100 µM; CC50 (UACC-62): > 100 µM; CC50 (OVCAR-5): > 100 µM; CC50 (A498): > 100 µM; CC50 (ACHN): > 100 µM; CC50 (SN12C): 4.44 µM; CC50 (TK-10): > 100 µM; CC50 (NCI/ADR-RES): > 100 µM; CC50 (MDA-MB-231 [5]): > 100 µM
CCCCCCCC[N+](C)(CCCCCCCC)CCCCCCCC.O=S(=O)([N-]S(=O)(=O)C(F)(F)F)C(F)(F)F | 2.44 | 1.23 | 0.951 | 4.31 | 4.47 | 4.41 | 6.12 | 6.96 | > 100 | > 100 | 5.75 | -100 | -87 | -100 | -97 | 0.206 | 0.162 | 0.378 | -100 | -95.8 | CC50 (HCT-15): 5.23 µM; CC50 (SF-539 [2]): 4.19 µM; CC50 (U-251): 4.32 µM; CC50 (LOX IMVI): 1.08 µM; CC50 (SK-MEL-5): 0.677 µM; CC50 (UACC-257): 6.16 µM; CC50 (UACC-62): 4.1 µM; CC50 (OVCAR-5): 8.17 µM; CC50 (A498): 6.36 µM; CC50 (ACHN): 4.52 µM; CC50 (SN12C): 4.06 µM; CC50 (TK-10): 4.86 µM; CC50 (NCI/ADR-RES): 8.13 µM; CC50 (MDA-MB-231 [5]): 3.63 µM
CCCCCCCCCCCCCCCCCCPCCCCCCCCCCCCCC (stereo not drawn) [MONO(OCTADECYL(TETRADECYL)PHOSPHONIUM) MONO(HEXAFLUOROPHOSPHATE(V)) MONO(TETRAFLUOROBORATE)] | – | – | – | – | – | – | – | > 100 | > 100 | > 100 | > 100 | -54.3 | -74.5 | 2.21 | -61 | 0.038 | 0.107 | 0.072 | -83.2 | -74 | growth at 10 µM (BT-549): -83.5%; growth at 10 µM (IGROV-1 [8]): -19.6%
